Source: ChEMBL document CHEMBL3507680, “University of Dundee, Gates Library screen for HepG2 cell viability”

Assay: Human HepG2 cell viability assay in 384 well format
Assay type: toxicity, cell-based
Set-up: dose 125 nL, time 70.5 hour; cytotoxicity at 70.5 h: concentration not given beside the values
Settings: HepG2 cells, read-out: Inhibition

Structure (SMILES) | cytotoxicity at 70.5 h [%]
CC(=O)N1CCC(c2[nH]ncc2S(C)(=O)=O)CC1 | -5.52
Cc1nccc(CC2COCCN(c3cnccn3)C2)n1 (stereo not given) | 22.7
Cc1c(NC(=O)CN2CCC(Oc3cnccn3)CC2)cnn1C | -3.61
Cc1nonc1CN(C)Cc1cnn(-c2ccc(Cl)cc2)c1 | -3.48
O=C(CC1CCN(CCc2ccccc2)CC1)NC1CCOCC1 | -1.43
O=C(NCc1ccc2c(c1)OCO2)[C@@H]1C=CCN1c1ncccn1 | -1.63
O=C(NCc1ccc2c(c1)OCO2)[C@H]1C=CCN1c1ncccn1 | -4.63
Cc1nn(C)cc1C1=NS(=O)(=O)N(C)C(C(=O)Nc2ccc(Cl)cc2)=C1 | 1.32
Cc1cc(-c2ccc(=O)n(C3CCN(C(=O)C4CC4)CC3)n2)c(C)o1 | -2.33
Cc1cccc(Nc2ccc(C3CCCCN3)cn2)n1 (stereo not given) | 4.51
Cc1cc(C)nc(Nc2ccc(C3CCCCN3)cn2)n1 (stereo not given) | 18.8
c1cnc(Nc2ccc(C3CCCCN3)cn2)cn1 (stereo not given) | -5.51
Cc1cc(N2CCC(Cc3ccncc3)C2)ncn1 (stereo not given) | -3.38
CC(C)N1CCC(c2cccc(C(=O)N(C)C)n2)CC1 | 24.4
CN(C)c1ccc(CC2CCCN(c3cnccn3)C2)nn1 (stereo not given) | -6.12
CCn1cc(S(=O)(=O)N2CCCC3(CC=CNC3=O)C2)c(C)n1 (stereo not given) | -1.52
Fc1cc(F)cc(CN2CCC(c3cc4ncccc4cn3)CC2)c1 | 1.34
CCCn1cc(C(=O)NCc2nnc(-c3ccc(C)nc3)o2)c(C)n1 | -1.21
Cc1nc(N(C)C)cc(C2(C)CCNCC2)n1 | -1.8
Cc1nc(C2CCN(C(C)C)CC2)sc1Br | -2.12
CNc1cccc(C2CN(C(=O)CNS(C)(=O)=O)CCO2)n1 (stereo not given) | 13
CCCn1ncc(CN(Cc2cccnc2)Cc2cccs2)c1C | 21.4

Structure (SMILES) | cytotoxicity at 70.5 h [%]
Cc1nccnc1CCC1COCCN1C(=O)CCc1c(C)noc1C (stereo not given) | 15.5
O=C(c1ccc(=O)[nH]n1)N1CCCC(O)(CN2CCC(F)(F)CC2)CC1 (stereo not given) | -8.65
COc1ccccc1CN1CCCC(Cc2nccnc2N)C1 (stereo not given) | -8.24
CN(C(=O)c1ccccc1F)[C@@H]1CC[C@@H](O)[C@@H]1O | -5.24
CC(=O)N1CCOC(c2cncc(CCC(=O)N(C)C)n2)C1 (stereo not given) | 5
CC(C)c1nccn1-c1nccnc1C1CCCN1Cc1ccccc1 (stereo not given) | -6.32
C[C@@H]1CN2C[C@H](O)CC2CN1Cc1ccncc1 (stereo not given in full) | -3.16
O=C(NCC1(O)COCCN(Cc2cccc(O)c2)C1)c1ccccn1 (stereo not given) | -5.55
Cc1cc(N2CCC(Cc3cccnc3)C2)ncn1 (stereo not given) | -3.49
NCc1cnn(-c2ccccc2C(=O)N2CCCC(C(N)=O)C2)c1 (stereo not given) | -2.72
Cc1cc(-c2cncnc2)nc(C2CCCN2S(C)(=O)=O)n1 (stereo not given) | -2.87
CC(C)OCC(=O)N1CCC(c2ncncc2-c2ccnc(N)c2)C1 (stereo not given) | -5.98
CCC(=O)N1CCCC1c1nc(N(C)C)ncc1-c1ccc(Cl)cc1 (stereo not given) | 2.05
Cc1ncsc1CN1CCOC(C)(C(=O)N2CCOCC2)C1 (stereo not given) | -2.94
Cc1cccc(CN2CCCC2c2cncc(Nc3nncs3)n2)c1 (stereo not given) | 2.33
CNc1cc(C2CCCN2C(=O)CCc2ccccc2F)ccn1 (stereo not given) | -2.87
Cc1nc(C)c(C(=O)N2CCCC2(C)C(=O)NC2CCCC2)o1 (stereo not given) | 8.88
O=C1CN(Cc2ccc3ccccc3n2)CCN1C1CCCC1 | -1.73
CCC(=O)N1CCC(c2ncncc2C)CC1 | -1.94
OCC(CO)N1CCC(c2nccnc2Nc2cnccn2)CC1 | -2.76
CC(C)C(C(=O)O)c1cccc(Cl)c1 (stereo not given) | -7.66
CNC(=O)Cc1ccc(NC(=O)NCc2ncc(C)s2)cc1 | 8.85

Structure (SMILES) | cytotoxicity at 70.5 h [%]
COc1cc(Br)c(S(=O)(=O)NC(=O)C(C)OC)cc1OC (stereo not given) | -6.11
CCn1cnnc1CCNC(=O)c1ccc(F)c(Br)c1 | -12.1
CCC(=O)c1cccc(S(=O)(=O)NC(C)C#N)c1 (stereo not given) | -11
CN(C)S(=O)(=O)N1CCC(C(O)c2ccc(Cl)cc2)CC1 (stereo not given) | -10.4
CCN(Cc1cccc2c1OCCO2)C(=O)NC(C)(C)C | -2.31
Cc1cc(NC(=O)N2CCC[C@@H]2CO)nn1-c1ccccc1Cl | -7.9
CC(C)Cc1cc(C(=O)N2CCC(N3CCCC3)CC2)cc(O)n1 | -12.3
Cc1cc(NC(=O)N2CCC[C@@H]2CO)nn1-c1cccc(Cl)c1 | -8.23
CC(OCC1CC1)C(=O)Nc1ccn(Cc2ccccc2)n1 (stereo not given) | -7.82
O=C(NCCCn1ccnc1)C1COCC(=O)N1Cc1ccccc1 (stereo not given) | -16
COCC1CCN(C(=O)c2cc(O)nc(CC(C)C)c2)CC1 | -7.27
CC(=O)N(C)C(c1cccnc1)c1ccc(F)c(F)c1 (stereo not given) | 23.1
Cc1ccnc(NC(=O)c2cc(C)oc2C)c1 | 4.63
Cc1ccnc(NC(=O)c2ccc(Cl)o2)c1 | -9.97
CCN(CC(=O)Nc1cc(C(C)(C)C)no1)Cc1ccc(Cl)s1 | -3.4
O=S(=O)(CCCn1cncn1)Cc1ccc(F)cc1Cl | -8.31
Cc1cnc(C(=O)NCC2Cc3ccccc3O2)cn1 (stereo not given) | 1.1
CS(=O)(=O)N1CCC(C(=O)Nc2nnc(C(F)(F)F)[nH]2)CC1 | -6.85
CC(C(=O)N1CCOCC1)S(=O)(=O)Cc1noc(C(C)(C)C)n1 (stereo not given) | 7.07
CC(NC(=O)c1ccoc1)C(=O)N(C)Cc1cccc(C(F)(F)F)c1 (stereo not given) | 9.42
CC(c1ccco1)N(C(=O)COc1ccc(C#N)cc1)C1CC1 (stereo not given) | -6.31
CC(c1ccco1)N(C(=O)c1cccc(C#N)c1)C1CC1 (stereo not given) | -5.03

Structure (SMILES) | cytotoxicity at 70.5 h [%]
CCOc1nnc(CN2CCC(c3nc4ccccc4[nH]3)CC2)s1 | 1.06
CC(c1nc(-c2ccccc2)no1)N1CC(n2cccn2)C1 (stereo not given) | -4.14
CN(C)S(=O)(=O)c1ccc(F)c(NC(=O)COCC2CC2)c1 | -10.8
CC(C)(C)SCC(=O)Nc1cc(-n2nnnc2C2CC2)ccc1F | 10.5
CCOCC(=O)Nc1cc(-n2nnnc2C2CC2)ccc1F | 0.6
Cc1cnn(CC(=O)Nc2cc(-n3nnnc3C3CC3)ccc2F)c1 | -7.79
CCN(CC)S(=O)(=O)NC(=O)c1cc(C)n(-c2ccccc2)n1 | 10.6
CCCS(=O)(=O)NC(=O)c1cc(C)n(-c2ccccc2)n1 | 7.41
CCOc1ccccc1CCNC(=O)NCC(O)c1cccs1 (stereo not given) | -4.36
CCC(CC)c1cc(C(=O)N2CCN(CC(N)=O)CC2)on1 | -6.02
CN1CCCc2cc(-c3cncn3CCNC3CCS(=O)(=O)C3)ccc21 (stereo not given) | -4.36
O=S1(=O)CCC(NCCn2cncc2-c2ccc3c(c2)CCCO3)C1 (stereo not given) | -8.18
c1cncc(CNCc2cccs2)c1 | 26
Fc1ccc(F)c(CN2CCC(c3cc4ncccc4cn3)CC2)c1 | 4.59
Fc1cccc(CN2CCC(c3cc4ncccc4cn3)CC2)c1F | 4.71
NCC1CCC(c2c(C(=O)NCCO)sc3ccccc23)CC1 (stereo not given) | 16.1
CCS(=O)(=O)N1CCc2c(nc(C3CCCN3)nc2NC)C1 (stereo not given) | 18.6
NC(=O)CCc1cccc(C2CCNCC2)n1 | 1.83
COCCNC(=O)C(C)N1CCN(C)CC1 (stereo not given) | -5.18
